Results taken from patent US6174877A, “Carbapenem compound, their production and use” (Takeda Chemical Industries, Ltd., priority 1996, dated 2001).
Converted amounts (≈) assume the structure as drawn. Where two headings read alike, the source gives them in different places.

Legend:
H. influenzae NN400 = assay: Minimum inhibitory concentration (MIC) by agar dilution method; assay type: cell-based; conditions: Haemophilus influenzae
Description: (§1) Minimum Inhibitory Concentration (MIC)
(§2) The minimum inhibitory concentration [MIC (unit: (μg/ml)] of the test compound was determined by an agar dilution method. More specifically, 0.25 ml of an aqueous solution of the test compound diluted stepwise was put into a Petri dish, which was then mixed with 9.75 ml of Muller-Hinton agar containing fildis enrichment [F-MH medium. fildis enrichment (5%)]). On thus-prepared mixed agar plate, a suspension of the test bacteria (about 10^6 CFU/ml) was spread, which was incubated at 37° C. overnight.

E. coli NHIJ JC-2 = assay: as above; assay type: cell-based; conditions: Escherichia coli
Description: as §1, §2

[1] = strain H. influenzae NN400, medium F-MH, 10^6 CFU/ml, 37° C. overnight, read-out: MIC (μg/ml) 10^6 CFU/ml H. influenzae NN400
[2] = NHIJJC2, strain E. coli NHIJ JC-2, medium F-MH, 10^6 CFU/ml, 37° C. overnight, read-out: MIC (μg/ml) 10^6 CFU/ml E. coli NHIJ JC-2
[3] = NN400, read-out: MIC (μg/ml) 10^6 CFU/ml H. influenzae NN400
[4] = NHIJJC2, read-out: MIC (μg/ml) 10^6 CFU/ml E. coli NHIJ JC-2

| MIC (H. influenzae NN400; [1]) [µg/mL] | MIC (E. coli NHIJ JC-2; [2]) [µg/mL] | SMILES | MIC (H. influenzae NN400; [3]) [µg/mL] | MIC (E. coli NHIJ JC-2; [4]) [µg/mL] |
| --- | --- | --- | --- | --- |
| 0.1 (≈ 0.275 µM) | 0.1 (≈ 0.275 µM) | CC(Cc1cccnn1)SC1=C(C(=O)O)N2C(=O)[C@H]([C@@H](C)O)[C@H]2[C@H]1C (single isomer, unassigned; diastereomer-2) [Working Example 17] | – | – |
| 0.78 (≈ 2.61 µM) | 0.1 (≈ 0.334 µM) | C[C@@H](O)[C@H]1C(=O)N2C(C(=O)O)=C(SCCN=CN)C[C@H]12 [Imipenem, reference compound] | – | – |
| 0.1 | 0.025 | C[C@@H](O)[C@H]1C(=O)N2C(C(=O)O)=C(SCCc3c[nH]nn3)[C@H](C)[C@H]12 [Working Example 2-3, Sodium (4R,5S,6S)-6-[(1R)-1-hydroxyethyl]-4-methyl-7-oxo-3-[2-(1,2,3-triazol-4-yl)ethylthio]-1-azabicyclo[3.2.0]hept-2-ene-carboxylate] | – | – |
| – | – | C[C@@H](O)[C@H]1C(=O)N2C(C(=O)[O-])=C(SCCc3cc[nH]n3)[C@H](C)[C@H]12.[Na+] [Working Example 3-3, Sodium (4R,5S,6S)-6-[(1R)-1-hydroxyethyl]-4-methyl-7-oxo-3-[2-(3-pyrazolyl)ethylthio]-1-azabicyclo[3.2.0]hept-2-ene-2-carboxylate] | 0.1 | 0.1 |
| – | – | C[C@@H](O)[C@H]1C(=O)N2C(C(=O)[O-])=C(SCCc3cn4ccccc4n3)[C@H](C)[C@H]12.[Na+] [Working Example 18-2, Sodium (4R,5S,6S)-6-[(R)-1-hydroxyethyl]-3-[2-(imidazo[1,2-a]pyridin-2-yl)ethylthio]-4-methyl-7-oxo-1-azabicyclo[3.2.0]hept-2-ene-2-carboxylate] | 0.1 | 0.2 |
| 0.05 | 0.2 | C[C@@H](O)[C@H]1C(=O)N2C(C(=O)O)=C(SCCc3cn4cc(N)ccc4n3)[C@H](C)[C@H]12 [Working Example 29-2, Sodium (4R,5S,6S)-3-[2-(6-aminoimidazo[1,2-a]pyridin-2-yl)ethylthio]-6-[(1R)-1-hydroxyethyl]-4-methyl-7-oxo-1-azabicyclo[3.2.0]hept-2-ene-carboxylate] | – | – |
| – | – | C[C@@H](O)[C@H]1C(=O)N2C(C(=O)[O-])=C(SCCc3cn4cccnc4n3)[C@H](C)[C@H]12.[Na+] [Working Example 32-2, Sodium (4R,5S,6S)-6-[(1R)-1-hydroxyethyl]-3-[2-(imidazo[1,2-a]pyrimidin-2-yl)ethylthio]-4-methyl-7-oxo-1-azabicyclo[3.2.0]hept-2-ene-2-carboxylate] | 0.05 | 0.2 |
| – | – | C[C@@H](O)[C@H]1C(=O)N2C(C(=O)[O-])=C(SCCc3cn4c(NC(N)=O)cccc4n3)[C@H](C)[C@H]12.[Na+] [Working Example 33-2, Sodium (4R,5S,6S)-6-[(1R)-1-hydroxyethyl]-4-methyl-7-oxo-3-[2-(5-ureidoimidazo[1,2-a]pyridin-2-yl)ethylthio]-1-azabicyclo[3.2.0]hept-2-ene-2-carboxylate] | 0.1 | 0.2 |
